IC50 data for nine molecules are collected here from BindingDB's records for doi:10.1021/jm00070a001 (Warner-Lambert, 1993).

Where a SMILES comes first, the peptide text is derived from it. [ ]: non-standard residue; d: D form.

The assay addresses Endothelin-1 receptor (Oryctolagus cuniculus). The assay is described as follows: Effective concentration against ET A receptor from rabbit renal artery vascular smooth muscle cells.
A word on the IC50: it is the concentration that gives 50% inhibition. A high value points to lower potency. Consider `CC[C@H](C)[C@H](NC(=O)[C@H](CC(=O)O)NC(=O)[C@H](CC(C)C)NC(=O)[C@@H](Cc1ccccc1)NC(C)=O)C(=O)N[C@H](C(=O)N[C@@H](Cc1csc2ccccc12)C(=O)O)[C@@H](C)CC` [Ac-D-Phe-Leu-Asp-Ile-Ile-Bta], for which the IC50 amounted to 14 µM. In other words, the double-digit micromolar range. The figure for `CC[C@H](C)[C@H](NC(=O)[C@H](CC(=O)O)NC(=O)[C@H](CC(C)C)NC(=O)[C@@H](Cc1ccccc1)NC(C)=O)C(=O)N[C@H](C(=O)NC(Cc1cnc[nH]1)C(=O)O)[C@@H](C)CC` (mixture of isomers) [Ac-D-Phe-Leu-Asp-Ile-Ile-DL-His] is over 10 µM; for `CC[C@H](C)[C@H](NC(=O)[C@H](CC(=O)O)NC(=O)[C@H](CC(C)C)NC(=O)[C@@H](Cc1ccc(O)cc1)NC(C)=O)C(=O)N[C@H](C(=O)N[C@@H](Cc1c[nH]c2ccccc12)C(=O)O)[C@@H](C)CC` (Ac-[dY]LDIIW-OH) it is 0.4 µM; for `CC[C@H](C)[C@H](NC(=O)[C@H](C)NC(=O)[C@H](CC(=O)O)NC(=O)[C@H](CC(C)C)NC(=O)[C@@H](Cc1ccccc1)NC(C)=O)C(=O)N[C@@H](Cc1c[nH]c2ccccc12)C(=O)O` [Ac-D-Phe-Leu-Asp-Ala-Ile-Trp] (Ac-[dF]LDAIW-OH) it is 3.6 µM. In the case of `CC[C@H](C)[C@H](NC(=O)[C@@H](NC(=O)[C@@H](Cc1ccccc1)NC(C)=O)[C@@H](C)CC)C(=O)N[C@@H](Cc1c[nH]c2ccccc12)C(=O)O` [Ac-D-Phe-Ile-Ile-Trp] (Ac-[dF]IIW-OH) it was over 10 µM. The figure for `CC[C@H](C)[C@H](NC(=O)[C@H](CC(=O)O)NC(=O)[C@H](CC(C)C)NC(=O)[C@@H](Cc1ccccc1)NC(C)=O)C(=O)N[C@@H](Cc1c[nH]c2ccccc12)C(=O)O` [(S)-3-[(R)-2-((1S,5S)-2-Acetylamino-3-phenyl-propionylamino)-4-methyl-pentanoylamino]-N-{(S)-1-[(S)-1-carboxy-2-(1H-indol-3-yl)-ethylcarbamoyl]-2-methyl-butyl}-succinamic acid] (Ac-[dF]LDIW-OH) is over 10 µM; for `CC[C@H](C)[C@H](NC(=O)[C@H](CC(=O)O)NC(=O)[C@H](CC(C)C)NC(=O)[C@@H](Cc1ccccc1)NC(C)=O)C(=O)N[C@H](C(=O)N[C@@H](Cc1ccc(O)cc1)C(=O)O)[C@@H](C)CC` [Ac-D-Phe-Leu-Asp-Ile-Ile-Tyr] (Ac-[dF]LDIIY-OH) it is over 10 µM. Turning to `CC[C@H](C)[C@H](NC(=O)[C@H](CC(=O)O)NC(=O)[C@H](CC(C)C)NC(=O)[C@H](N)Cc1ccccc1)C(=O)N[C@H](C(=O)N[C@@H](Cc1c[nH]c2ccccc12)C(=O)O)[C@@H](C)CC` [D-Phe-Leu-Asp-Ile-Ile-Trp], the IC50 was over 10 µM. In the case of `CC[C@H](C)[C@H](NC(=O)[C@H](CC(=O)O)NC(=O)[C@H](CC(C)C)NC(=O)[C@@H](Cc1ccccc1)NC(C)=O)C(=O)N[C@@H](C)C(=O)N[C@@H](Cc1c[nH]c2ccccc12)C(=O)O` [Ac-D-Phe-Leu-Asp-Ile-Ala-Trp] (Ac-[dF]LDIAW-OH) it was 8 µM.
